Laboratory results published in US10988478B1, “Pyrazolo[1,5a]pyrimidine derivatives as IRAK4 modulators” (Genentech, Inc., priority 2015, dated 2021).

Target: human IRAK4 (Homo sapiens (Human), UniProt Q9NWZ3)
Assay: IRAK4 kinase inhibition, Transcreener fluorescence polarization ADP assay
Format: biochemical
Conditions: recombinant full-length His6-IRAK4; 125 uM ATP; 90 min; Ki computed using ATP Km 642 uM
Description: Compounds were assayed for inhibition of human IRAK4 and IRAK1 catalytic activity using recombinant enzyme produced from insect cells. Full-length IRAK4 protein, carrying an N-terminal His6-Tag, was obtained from Life Technologies (Carlsbad, Calif., USA). The IRAK1 construct was produced internally and was comprised of IRAK1 residues Arg194 to Ser712, preceded by an NH2-terminal His6 tag and the coding sequence for glutathione-S-transferase.

Chain of human IRAK4 (Q9NWZ3 whole entry): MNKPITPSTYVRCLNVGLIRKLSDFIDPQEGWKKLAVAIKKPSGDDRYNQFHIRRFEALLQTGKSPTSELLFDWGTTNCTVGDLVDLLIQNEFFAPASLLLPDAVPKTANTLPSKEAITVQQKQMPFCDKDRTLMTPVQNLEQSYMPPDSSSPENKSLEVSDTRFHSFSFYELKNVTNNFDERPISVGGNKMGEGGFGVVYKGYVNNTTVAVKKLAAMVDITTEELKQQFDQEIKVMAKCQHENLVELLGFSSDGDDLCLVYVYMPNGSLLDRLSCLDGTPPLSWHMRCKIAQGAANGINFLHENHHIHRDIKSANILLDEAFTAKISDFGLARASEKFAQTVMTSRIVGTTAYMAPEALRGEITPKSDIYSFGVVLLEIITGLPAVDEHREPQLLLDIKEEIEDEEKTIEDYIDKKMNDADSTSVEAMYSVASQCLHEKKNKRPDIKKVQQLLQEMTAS

Structure (SMILES)	Ki
C[C@]1(O)COc2cc(N3CCOCC3)c(NC(=O)c3cnn4cccnc34)cc2C1 (single isomer, unassigned) [Example 27]	260 nM
C[C@@]1(O)COc2cc(N3CCOCC3)c(NC(=O)c3cnn4cccnc34)cc2C1 (single isomer, unassigned) [Example 28]	27 nM
C[C@]1(CO)Cc2cc(NC(=O)c3cnn4cccnc34)c(N3CCC(F)(CO)CC3)cc2O1 (single isomer, unassigned) [Example 44]	1.7 nM
C[C@@]1(CO)Cc2cc(NC(=O)c3cnn4cccnc34)c(N3CCC(F)(CO)CC3)cc2O1 (single isomer, unassigned) [Example 45]	1.9 nM
C[C@@]1(CO)Cc2cc(NC(=O)c3cnn4cccnc34)c(N3C[C@@H]4C[C@H]3CO4)cc2O1 (single isomer, unassigned) [Example 46]	540 nM
CC[C@]1(C)Cc2cc(NC(=O)c3cnn4cccnc34)c(N3CCOCC3)cc2O1 (single isomer, unassigned) [Example 97]	7.2 nM
C[C@]1(CO)Cc2cc(NC(=O)c3cnn4cc(Cl)cnc34)c(N3CCOCC3)cc2O1 (single isomer, unassigned) [Example 166]	18 nM
C[C@@]1(CO)Cc2cc(NC(=O)c3cnn4cc(Cl)cnc34)c(N3CCN(CC(F)F)CC3)cc2O1 (single isomer, unassigned) [Example 169]	2.5 nM
CC1(C)Cc2cc(NC(=O)c3cnn4cccnc34)c(N3CC[C@@]4(CCOC4)C3)cc2O1 (single isomer, unassigned) [Example 222]	94 nM
CC1(C)Cc2cc(NC(=O)c3cnn4cccnc34)c(N3CC[C@]4(CCOC4)C3)cc2O1 (single isomer, unassigned) [Example 223]	72 nM
CC(C)(O)[C@H](F)CN1Cc2cc(NC(=O)c3cnn4cccnc34)c(N3CCC([C@H](O)C(F)(F)F)CC3)cc2C1=O (single isomer, unassigned) [Example 259]	2 nM
O=C(Nc1cc2c(cc1N1CCOCC1)C(=O)N(C1CCOC1)C2)c1cnn2cccnc12 (single isomer, unassigned) [Example 275, N-(6-morpholino-1-oxo-2-(tetrahydrofuran-3-yl)isoindolin-5-yl)pyrazolo[1,5-a]pyrimidine-3-carboxamide]	34 nM
O=C(Nc1cc2c(cc1N1CCOCC1)C(=O)N(C1CCOC1)C2)c1cnn2cccnc12 (single isomer, unassigned) [Example 276, N-(6-morpholino-1-oxo-2-(tetrahydrofuran-3-yl)isoindolin-5-yl)pyrazolo[1,5-a]pyrimidine-3-carboxamide]	26 nM
O=C(Nc1cc2c(cc1N1CCOCC1)C(=O)N(CC1CCCCO1)C2)c1cnn2cccnc12 (single isomer, unassigned) [Example 277, N-(6-morpholino-1-oxo-2-((tetrahydro-2H-pyran-2-yl)methyl)isoindolin-5-yl)pyrazolo[1,5-a]pyrimidine-3-carboxamide]	16 nM
O=C(Nc1cc2c(cc1N1CCOCC1)C(=O)N(CC1CCCCO1)C2)c1cnn2cccnc12 (single isomer, unassigned) [Example 278, N-(6-morpholino-1-oxo-2-((tetrahydro-2H-pyran-2-yl)methyl)isoindolin-5-yl)pyrazolo[1,5-a]pyrimidine-3-carboxamide]	4 nM
CC(C)(O)[C@H](F)CN1Cc2cc(NC(=O)c3cnn4cccnc34)c(N3CCC([C@H](O)C(F)F)CC3)cc2C1=O (single isomer, unassigned) [Example 282]	2 nM
CC(C)(O)[C@H](F)CN1Cc2cc(NC(=O)c3cnn4cccnc34)c(N3CCC([C@@H](O)C(F)F)CC3)cc2C1=O (single isomer, unassigned) [Example 283]	2 nM
O=C(Nc1cc2c(cc1N1CCC(F)(CO)CC1)O[C@](CO)(C(F)(F)F)C2)c1cnn2cccnc12 (single isomer, unassigned) [Example 318]	4.3 nM
C[C@@]1(O)CCCN(c2cc3c(cc2NC(=O)c2cnn4cccnc24)C[C@@](C)(CO)O3)CC1 (single isomer, unassigned) [Example 331]	12 nM
CC1(CO)Cc2cc(NC(=O)c3cnn4cccnc34)c(N3CCC(n4ccnc4)CC3)cc2O1 (single isomer, unassigned) [Example 344, N-(6-(4-(1H-imidazol-1-yl)piperidin-1-yl)-2-(hydroxymethyl)-2-methyl-2,3-dihydrobenzofuran-5-yl)pyrazolo[1,5-a]pyrimidine-3-carboxamide]	8 nM
CC1(CO)Cc2cc(NC(=O)c3cnn4cccnc34)c(N3CCC(n4ccnc4)CC3)cc2O1 (single isomer, unassigned) [Example 345, N-(6-(4-(1H-imidazol-1-yl)piperidin-1-yl)-2-(hydroxymethyl)-2-methyl-2,3-dihydrobenzofuran-5-yl)pyrazolo[1,5-a]pyrimidine-3-carboxamide]	4 nM

Structure (SMILES)	Ki
C[C@]1(CO)Cc2cc(NC(=O)c3cnn4cccnc34)c(N3CCC4(CC3)CNC(=O)C4)cc2O1 (single isomer, unassigned) [Example 417]	3.6 nM
C[C@]1(CO)Cc2cc(NC(=O)c3cnn4cccnc34)c(N3Cc4cccnc4C3)cc2O1 (single isomer, unassigned) [Example 419]	9 nM
C[C@]1(O)COc2cc(N3CCC([C@@](C)(O)C(F)(F)F)CC3)c(NC(=O)c3cnn4cccnc34)cc2C1 (single isomer, unassigned) [Example 422]	110 nM
Cn1cc(COc2cc3c(cc2NC(=O)c2cnn4cccnc24)C[C@@](C)(O)CO3)cn1 (single isomer, unassigned) [Example 430]	130 nM
C[C@]1(CO)CCc2cc(NC(=O)c3cnn4cccnc34)c(N3CCOCC3)cc2O1 (single isomer, unassigned) [Example 432]	10 nM
C[C@@]1(CO)CCc2cc(NC(=O)c3cnn4cccnc34)c(N3CCOCC3)cc2O1 (single isomer, unassigned) [Example 433]	14 nM
C[C@@]1(CO)CCc2cc(NC(=O)c3cnn4cccnc34)c(N3CCOCC3)cc2O1 (single isomer, unassigned) [Example 436]	10 nM
C[C@]1(CO)CCc2cc(NC(=O)c3cnn4cccnc34)c(N3CCOCC3)cc2O1 (single isomer, unassigned) [Example 437]	14 nM
O=C(Nc1cc2c(cc1N1CCOCC1)C(=O)N(CC1CCOC1)C2)c1cnn2cccnc12 (single isomer, unassigned) [Example 555]	3.8 nM
CC(CC(C)(C)O)N1Cc2cc(NC(=O)c3cnn4cccnc34)c(N3CCOCC3)cc2C1=O (stereo in doubt) [Example 544, N-[2-[(1S)-3-hydroxy-1,3-dimethyl-butyl]-6-morpholino-1-oxo-isoindolin-5-yl]pyrazolo[1,5-a]pyrimidine-3-carboxamide]	13 nM
CC(CC(C)(C)O)N1Cc2cc(NC(=O)c3cnn4cccnc34)c(N3CCOCC3)cc2C1=O (stereo in doubt) [Example 545, N-[2-[(1R)-3-hydroxy-1,3-dimethyl-butyl]-6-morpholino-1-oxo-isoindolin-5-yl]pyrazolo[1,5-a]pyrimidine-3-carboxamide]	5.9 nM
O=C(Nc1cc2c(cc1N1CCOCC1)C(=O)N(C[C@@H]1CCC[C@H]1O)C2)c1cnn2cccnc12 (stereo in doubt) [Example 549, N-[2-[[(1S,2R)-2-hydroxycyclopentyl]methyl]-6-morpholino-1-oxo-isoindolin-5-yl]pyrazolo[1,5-a]pyrimidine-3-carboxamide]	8.1 nM
O=C(Nc1cc2c(cc1N1CCOCC1)C(=O)N(C[C@H]1CCC[C@@H]1O)C2)c1cnn2cccnc12 (stereo in doubt) [Example 550, N-[2-[[(1R,2S)-2-hydroxycyclopentyl]methyl]-6-morpholino-1-oxo-isoindolin-5-yl]pyrazolo[1,5-a]pyrimidine-3-carboxamide]	2.1 nM
O=C(Nc1cc2c(cc1N1CCC(CO)CC1)OCCN2)c1cnn2cccnc12 [Example 1, N-(7-(4-(Hydroxymethyl)piperidin-1-yl)-3,4-dihydro-2H-benzo[b][1,4]oxazin-6-yl)pyrazolo[1,5-a]pyrimidine-3-carboxamide]	4.7 nM
O=C1COc2cc(N3CCC(CO)CC3)c(NC(=O)c3cnn4cccnc34)cc2N1 [Example 2, N-(7-(4-(Hydroxymethyl)piperidin-1-yl)-3-oxo-3,4-dihydro-2H-benzo[b][1,4]oxazin-6-yl)pyrazolo[1,5-a]pyrimidine-3-carboxamide]	26 nM
CNC[C@H]1OC[C@H](c2cc3c(cc2NC(=O)c2cnn4cccnc24)CC(C)(C)O3)CO1 [Example 3, Trans-N-[2,2-dimethyl-6-[2-(methylaminomethyl)-1,3-dioxan-5-yl]-3H-benzofuran-5-yl]pyrazolo[1,5-a]pyrimidine-3-carboxamide]	150 nM
CC1(C)Cc2cc(NC(=O)c3cnn4cccnc34)c(N3CCC(CO)CC3)cc2O1 [Example 4, N-(6-(4-(Hydroxymethyl)piperidin-1-yl)-2,2-dimethyl-2,3-dihydrobenzofuran-5-yl)pyrazolo[1,5-a]pyrimidine-3-carboxamide]	1.5 nM
CC1(C)CNc2cc(NC(=O)c3cnn4cccnc34)c(N3CCOCC3)cc2O1 [Example 5, N-(2,2-Dimethyl-7-morpholino-3,4-dihydro-2H-benzo[b][1,4]oxazin-6-yl)pyrazolo[1,5-a]pyrimidine-3-carboxamide]	54 nM
Cc1cnc2c(C(=O)Nc3cc4c(cc3N3CCC(CO)CC3)OCCN4)cnn2c1 [Example 7, N-(7-(4-(Hydroxymethyl)piperidin-1-yl)-3,4-dihydro-2H-benzo[b][1,4]oxazin-6-yl)-6-methylpyrazolo[1,5-a]pyrimidine-3-carboxamide]	3.9 nM
CC1(C)Cc2cc(NC(=O)c3cnn4cccnc34)c(N3CCN(CC(F)F)CC3)cc2O1 [Example 8, N-[6-[4-(2,2-Difluoroethyl)piperazin-1-yl]-2,2-dimethyl-3H-benzofuran-5-yl]pyrazolo[1,5-a]pyrimidine-3-carboxamide]	2.3 nM
